In patent US20240217961A1 (MONOPTEROS THERAPEUTICS, INC., priority 2021, published 2024):

Key:
Experiment in all cases: CYP phenotyping, recombinant CYP enzyme incubation
Format in all cases: in vitro ADME
CYP1A2 = target: T1, CYP1A2 (Homo sapiens, UniProt P05177)
T1 sequence (P05177 1-516): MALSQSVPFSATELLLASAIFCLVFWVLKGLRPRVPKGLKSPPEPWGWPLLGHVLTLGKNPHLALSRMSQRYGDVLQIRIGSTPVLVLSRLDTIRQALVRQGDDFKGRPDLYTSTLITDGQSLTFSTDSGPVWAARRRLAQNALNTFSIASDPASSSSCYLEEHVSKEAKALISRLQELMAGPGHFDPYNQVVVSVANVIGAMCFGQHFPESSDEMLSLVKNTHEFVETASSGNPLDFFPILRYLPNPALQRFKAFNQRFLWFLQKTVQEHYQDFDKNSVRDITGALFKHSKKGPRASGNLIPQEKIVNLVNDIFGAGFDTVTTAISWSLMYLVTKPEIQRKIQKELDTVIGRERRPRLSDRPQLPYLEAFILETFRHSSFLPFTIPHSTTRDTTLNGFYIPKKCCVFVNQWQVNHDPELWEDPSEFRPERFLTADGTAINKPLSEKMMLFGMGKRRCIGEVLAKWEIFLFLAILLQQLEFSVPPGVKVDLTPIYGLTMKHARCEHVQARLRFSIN
Experimental: (§1) These incubations were carried out at a concentration of 1 µM and contained 50 pmol/ml of CYP protein. Samples were taken at 0, 5, 10, 15, 20 and 30 minutes. The CLint and t1/2 were calculated from the data.

CYP2C19 = CYP2C19 (Homo sapiens, UniProt P33261)
Sequence of CYP2C19 (P33261 whole entry): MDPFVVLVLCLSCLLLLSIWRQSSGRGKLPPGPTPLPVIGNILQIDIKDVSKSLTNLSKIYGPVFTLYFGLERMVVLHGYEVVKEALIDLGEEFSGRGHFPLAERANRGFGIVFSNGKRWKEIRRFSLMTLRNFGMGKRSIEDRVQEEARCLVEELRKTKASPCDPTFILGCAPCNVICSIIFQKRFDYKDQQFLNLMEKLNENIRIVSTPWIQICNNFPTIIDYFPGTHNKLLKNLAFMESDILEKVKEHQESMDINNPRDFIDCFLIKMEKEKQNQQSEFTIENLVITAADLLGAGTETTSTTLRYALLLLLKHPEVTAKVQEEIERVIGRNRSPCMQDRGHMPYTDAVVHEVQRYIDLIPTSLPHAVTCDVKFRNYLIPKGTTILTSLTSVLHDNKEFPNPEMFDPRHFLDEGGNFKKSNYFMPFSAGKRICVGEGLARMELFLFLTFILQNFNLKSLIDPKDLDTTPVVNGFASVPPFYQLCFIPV
Experimental: as §1

CYP2C9 = CYP2C9 (Homo sapiens, UniProt P11712)
Sequence of CYP2C9 (P11712 whole entry): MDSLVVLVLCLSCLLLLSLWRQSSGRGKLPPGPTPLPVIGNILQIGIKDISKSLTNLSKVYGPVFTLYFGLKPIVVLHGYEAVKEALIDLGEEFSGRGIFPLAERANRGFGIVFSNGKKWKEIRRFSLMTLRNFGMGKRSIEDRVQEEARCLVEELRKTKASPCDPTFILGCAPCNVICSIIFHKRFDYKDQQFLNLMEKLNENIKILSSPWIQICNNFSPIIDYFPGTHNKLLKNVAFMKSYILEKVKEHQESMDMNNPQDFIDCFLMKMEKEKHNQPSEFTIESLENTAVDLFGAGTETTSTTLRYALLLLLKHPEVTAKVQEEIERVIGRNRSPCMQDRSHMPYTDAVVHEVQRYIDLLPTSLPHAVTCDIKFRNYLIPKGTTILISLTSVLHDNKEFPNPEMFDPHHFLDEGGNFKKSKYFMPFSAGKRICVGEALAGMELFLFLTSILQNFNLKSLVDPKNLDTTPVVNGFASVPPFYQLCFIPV
Experimental: as §1

CYP2D6 = CYP2D6 (Homo sapiens, UniProt P10635)
Sequence of CYP2D6 (P10635 whole entry): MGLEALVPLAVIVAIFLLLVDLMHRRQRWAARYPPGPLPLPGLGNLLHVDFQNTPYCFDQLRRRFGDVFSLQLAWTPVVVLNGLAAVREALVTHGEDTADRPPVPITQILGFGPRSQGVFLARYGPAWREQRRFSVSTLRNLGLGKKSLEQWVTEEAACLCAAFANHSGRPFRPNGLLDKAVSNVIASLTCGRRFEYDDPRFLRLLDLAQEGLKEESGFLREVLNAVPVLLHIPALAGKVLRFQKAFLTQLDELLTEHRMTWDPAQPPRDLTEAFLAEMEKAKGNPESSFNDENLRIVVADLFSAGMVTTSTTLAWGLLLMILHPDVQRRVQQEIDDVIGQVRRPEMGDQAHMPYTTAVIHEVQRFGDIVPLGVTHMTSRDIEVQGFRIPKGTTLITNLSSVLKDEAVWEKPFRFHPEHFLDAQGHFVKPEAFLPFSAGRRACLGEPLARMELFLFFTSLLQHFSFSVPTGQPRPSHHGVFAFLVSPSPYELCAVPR
Experimental: as §1

CYP3A4 = CYP3A4 (Homo sapiens, UniProt P08684)
Sequence of CYP3A4 (P08684 whole entry): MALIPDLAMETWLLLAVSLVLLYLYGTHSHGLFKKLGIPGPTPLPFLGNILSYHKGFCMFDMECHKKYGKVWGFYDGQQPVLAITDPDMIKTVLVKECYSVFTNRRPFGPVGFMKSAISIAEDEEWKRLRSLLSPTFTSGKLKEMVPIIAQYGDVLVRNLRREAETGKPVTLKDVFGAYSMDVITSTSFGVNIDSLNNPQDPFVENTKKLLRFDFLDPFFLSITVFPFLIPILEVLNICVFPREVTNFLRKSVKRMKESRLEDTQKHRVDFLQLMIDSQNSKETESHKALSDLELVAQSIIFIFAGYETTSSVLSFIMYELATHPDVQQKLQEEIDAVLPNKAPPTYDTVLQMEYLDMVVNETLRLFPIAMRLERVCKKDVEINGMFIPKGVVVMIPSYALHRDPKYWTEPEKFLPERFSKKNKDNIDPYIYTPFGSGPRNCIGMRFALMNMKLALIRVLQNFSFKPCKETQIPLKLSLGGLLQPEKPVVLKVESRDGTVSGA
Experimental: as §1

human CYP2A6 = target: T2, human CYP2A6 (Homo sapiens, UniProt P11509)
T2 sequence (P11509 1-494): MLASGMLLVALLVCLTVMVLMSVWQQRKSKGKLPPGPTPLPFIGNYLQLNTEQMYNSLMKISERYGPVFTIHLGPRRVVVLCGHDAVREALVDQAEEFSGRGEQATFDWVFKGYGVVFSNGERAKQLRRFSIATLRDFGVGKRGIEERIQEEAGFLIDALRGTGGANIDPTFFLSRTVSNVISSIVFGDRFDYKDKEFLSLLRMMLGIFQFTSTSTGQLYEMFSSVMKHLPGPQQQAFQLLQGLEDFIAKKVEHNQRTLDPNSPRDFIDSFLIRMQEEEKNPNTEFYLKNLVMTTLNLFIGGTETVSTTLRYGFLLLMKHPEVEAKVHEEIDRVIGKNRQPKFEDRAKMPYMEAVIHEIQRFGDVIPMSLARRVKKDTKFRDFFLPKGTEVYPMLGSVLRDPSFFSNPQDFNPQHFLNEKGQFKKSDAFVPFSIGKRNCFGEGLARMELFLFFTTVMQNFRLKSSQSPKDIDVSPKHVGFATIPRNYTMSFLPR
Experimental: as §1

human CYP2B6 = target: T3, human CYP2B6 (Homo sapiens, UniProt P20813)
T3 sequence (P20813 1-491): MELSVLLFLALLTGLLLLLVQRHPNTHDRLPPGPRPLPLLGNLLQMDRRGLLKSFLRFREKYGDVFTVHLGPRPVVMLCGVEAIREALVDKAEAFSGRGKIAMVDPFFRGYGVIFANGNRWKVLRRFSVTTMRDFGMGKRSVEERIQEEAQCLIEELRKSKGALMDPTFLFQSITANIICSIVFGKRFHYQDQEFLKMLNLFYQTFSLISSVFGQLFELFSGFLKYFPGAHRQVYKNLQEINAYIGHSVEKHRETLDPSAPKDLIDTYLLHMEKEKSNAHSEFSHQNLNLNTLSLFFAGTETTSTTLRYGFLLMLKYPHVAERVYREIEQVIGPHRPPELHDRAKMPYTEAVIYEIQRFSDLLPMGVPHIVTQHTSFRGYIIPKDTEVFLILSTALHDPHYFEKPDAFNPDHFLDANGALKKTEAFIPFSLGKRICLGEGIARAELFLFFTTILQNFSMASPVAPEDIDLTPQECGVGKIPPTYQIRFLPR
Experimental: as §1

human CYP2E1 = human CYP2E1 (Homo sapiens, UniProt P05181)
Sequence of human CYP2E1 (P05181 whole entry): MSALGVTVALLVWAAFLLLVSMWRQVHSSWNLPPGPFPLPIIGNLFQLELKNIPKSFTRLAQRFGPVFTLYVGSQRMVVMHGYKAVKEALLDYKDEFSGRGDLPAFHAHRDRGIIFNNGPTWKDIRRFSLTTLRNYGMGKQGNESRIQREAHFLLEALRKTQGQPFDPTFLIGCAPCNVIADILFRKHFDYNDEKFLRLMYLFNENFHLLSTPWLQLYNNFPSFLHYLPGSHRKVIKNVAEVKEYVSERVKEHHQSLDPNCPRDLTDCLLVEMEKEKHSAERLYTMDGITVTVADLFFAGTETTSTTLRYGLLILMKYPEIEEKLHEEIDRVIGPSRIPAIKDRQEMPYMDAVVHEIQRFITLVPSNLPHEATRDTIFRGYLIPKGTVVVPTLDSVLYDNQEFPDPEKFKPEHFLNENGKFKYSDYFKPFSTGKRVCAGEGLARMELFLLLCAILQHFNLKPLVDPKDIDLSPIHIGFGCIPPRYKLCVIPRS
Experimental: as §1

For CN1CCC[C@H](CN2c3ccccc3Sc3ccccc32)C1 [(S)-mepazine, (S)-10-((1-methylpiperidin-3-yl)methyl)-10H-phenothiazine], the Contribution % (CYP1A2; CYP1A2) was 9.61%, the contribution % (CYP1A2; CYP1A2) was 9.61% and the half-life at 1 µM (CYP1A2; human, recombinant CYP1A2, 1 µM, 50 pmol/ml of CYP protein, mean ± SD, n = 3) was 51.5 ± 5.99 min. It also gave a CLint (CYP1A2; recombinant CYP1A2, 1 µM, 50 pmol/ml of CYP protein, mean ± SD, n = 3) of 0.272 ± 0.0339 μL/min/pmol CYP, a CLint (CYP1A2; recombinant CYP1A2, 1 µM, 50 pmol/ml CYP protein) of 0.272 µL/min/pmol and a Contribution % (CYP2C19; CYP2C19) of 8.01%. The contribution % (CYP2C19; CYP2C19) was 8.01%, the half-life at 1 µM (CYP2C19; human, recombinant CYP2C19, 1 µM, 50 pmol/ml of CYP protein, mean ± SD, n = 3) was 25.9 ± 1.68 min and the CLint (CYP2C19; recombinant CYP2C19, 1 µM, 50 pmol/ml of CYP protein, mean ± SD, n = 3) was 0.537 ± 0.0361 μL/min/pmol CYP. For the same compound, the CLint (CYP2C19; recombinant CYP2C19, 1 µM, 50 pmol/ml CYP protein) was 0.537 µL/min/pmol, the Contribution % (CYP2C9; CYP2C9) was 8.24% and the contribution % (CYP2C9; CYP2C9) was 8.24%. It also gave a half-life at 1 µM (CYP2C9; human, recombinant CYP2C9, 1 µM, turnover observed for one or two replicates only, t1/2 reported as minimum) of 127 min, a CLint (CYP2C9; recombinant CYP2C9, 1 µM, turnover observed for one or two replicates only, Clint reported as maximum) of 0.109 μL/min/pmol CYP and a CLint (CYP2C9; recombinant CYP2C9, turnover observed in one of the three replicates) of 0.109 µL/min/pmol. The Contribution % (CYP2D6; CYP2D6) was 11.0%, the contribution % (CYP2D6; CYP2D6) was 11.0% and the “CYP isoform participating in metabolism” value (CYP2D6; based on expressed human cytochrome P450s and liver microsomes with specific inhibitors) was “CYP2D6 is major CYP isoform”. It also gave a half-life at 1 µM (CYP2D6; human, recombinant CYP2D6, 1 µM, 50 pmol/ml of CYP protein, mean ± SD, n = 3) of 9.94 ± 0.819 min, a CLint (CYP2D6; recombinant CYP2D6, 1 µM, 50 pmol/ml of CYP protein, mean ± SD, n = 3) of 1.40 ± 0.112 μL/min/pmol CYP and a CLint (CYP2D6; recombinant CYP2D6, 1 µM, 50 pmol/ml CYP protein) of 1.40 µL/min/pmol. The Contribution % (CYP3A4; CYP3A4) was 50.3%, the contribution % (CYP3A4; CYP3A4) was 50.3% and the half-life at 1 µM (CYP3A4; human, recombinant CYP3A4, 1 µM, 50 pmol/ml of CYP protein, mean ± SD, n = 3) was 23.5 ± 2.35 min. It also gave a CLint (CYP3A4; recombinant CYP3A4, 1 µM, 50 pmol/ml of CYP protein, mean ± SD, n = 3) of 0.593 ± 0.0562 μL/min/pmol CYP, a CLint (CYP3A4; recombinant CYP3A4, 1 µM, 50 pmol/ml CYP protein) of 0.593 µL/min/pmol and a Contribution % (human CYP2A6; CYP2A6) of 0.00%. For the same compound, the “metabolism by recombinant CYP isoform” value (human CYP2A6; recombinant CYP2A6) was “not found to substantially metabolize”, the CLint (human CYP2A6; recombinant CYP2A6, 1 µM, turnover not significant and > 80% remaining at last time point reported as 0.00) was 0.00 μL/min/pmol CYP and the t1/2 (human CYP2A6; recombinant CYP2A6, 1 µM, turnover not significant and > 80% remaining at last time point reported as ∞) was “∞”. The Contribution % (human CYP2B6; CYP2B6) was 0.00%, the “metabolism by recombinant CYP isoform” value (human CYP2B6; recombinant CYP2B6) was “not found to substantially metabolize” and the CLint (human CYP2B6; recombinant CYP2B6, 1 µM, turnover not significant and > 80% remaining at last time point reported as 0.00) was 0.00 μL/min/pmol CYP. For the same compound, the t1/2 (human CYP2B6; recombinant CYP2B6, 1 µM, turnover not significant and > 80% remaining at last time point reported as ∞) was “∞”, the Contribution % (human CYP2E1; CYP2E1) was 0.00% and the “metabolism by recombinant CYP isoform” value (human CYP2E1; recombinant CYP2E1) was “not found to substantially metabolize”. The CLint (human CYP2E1; recombinant CYP2E1, 1 µM, turnover not significant and > 80% remaining at last time point reported as 0.00) was 0.00 μL/min/pmol CYP and the t1/2 (human CYP2E1; recombinant CYP2E1, 1 µM, turnover not significant and > 80% remaining at last time point reported as ∞) was “∞”.
